In ChEMBL document CHEMBL2074403, “The solvents cremophor EL and Tween 80 modulate daunorubicin resistance in the multidrug resistant Ehrlich ascites tumor” (Cancer Commun, 1990):

Columns and labels:
[1] = biological target: T1, ATP-dependent translocase ABCB1 (Homo sapiens, UniProt P08183); experiment: TP_TRANSPORTER: inhibition of Daunorubicin efflux (Daunorubicin: 5 uM, Tween 80: 0.01 %(v/v)) in EHR2/DNR+ cells; type: functional, cell-based; conditions: mouse
[2] = biological target: T1, ATP-dependent translocase ABCB1; experiment: TP_TRANSPORTER: inhibition of Daunorubicin efflux (Daunorubicin: 5 uM, Cremophor EL: 0.01 %(v/v)) in EHR2/DNR+ cells; type: functional, cell-based; conditions: mouse

T1 sequence (P08183 whole entry): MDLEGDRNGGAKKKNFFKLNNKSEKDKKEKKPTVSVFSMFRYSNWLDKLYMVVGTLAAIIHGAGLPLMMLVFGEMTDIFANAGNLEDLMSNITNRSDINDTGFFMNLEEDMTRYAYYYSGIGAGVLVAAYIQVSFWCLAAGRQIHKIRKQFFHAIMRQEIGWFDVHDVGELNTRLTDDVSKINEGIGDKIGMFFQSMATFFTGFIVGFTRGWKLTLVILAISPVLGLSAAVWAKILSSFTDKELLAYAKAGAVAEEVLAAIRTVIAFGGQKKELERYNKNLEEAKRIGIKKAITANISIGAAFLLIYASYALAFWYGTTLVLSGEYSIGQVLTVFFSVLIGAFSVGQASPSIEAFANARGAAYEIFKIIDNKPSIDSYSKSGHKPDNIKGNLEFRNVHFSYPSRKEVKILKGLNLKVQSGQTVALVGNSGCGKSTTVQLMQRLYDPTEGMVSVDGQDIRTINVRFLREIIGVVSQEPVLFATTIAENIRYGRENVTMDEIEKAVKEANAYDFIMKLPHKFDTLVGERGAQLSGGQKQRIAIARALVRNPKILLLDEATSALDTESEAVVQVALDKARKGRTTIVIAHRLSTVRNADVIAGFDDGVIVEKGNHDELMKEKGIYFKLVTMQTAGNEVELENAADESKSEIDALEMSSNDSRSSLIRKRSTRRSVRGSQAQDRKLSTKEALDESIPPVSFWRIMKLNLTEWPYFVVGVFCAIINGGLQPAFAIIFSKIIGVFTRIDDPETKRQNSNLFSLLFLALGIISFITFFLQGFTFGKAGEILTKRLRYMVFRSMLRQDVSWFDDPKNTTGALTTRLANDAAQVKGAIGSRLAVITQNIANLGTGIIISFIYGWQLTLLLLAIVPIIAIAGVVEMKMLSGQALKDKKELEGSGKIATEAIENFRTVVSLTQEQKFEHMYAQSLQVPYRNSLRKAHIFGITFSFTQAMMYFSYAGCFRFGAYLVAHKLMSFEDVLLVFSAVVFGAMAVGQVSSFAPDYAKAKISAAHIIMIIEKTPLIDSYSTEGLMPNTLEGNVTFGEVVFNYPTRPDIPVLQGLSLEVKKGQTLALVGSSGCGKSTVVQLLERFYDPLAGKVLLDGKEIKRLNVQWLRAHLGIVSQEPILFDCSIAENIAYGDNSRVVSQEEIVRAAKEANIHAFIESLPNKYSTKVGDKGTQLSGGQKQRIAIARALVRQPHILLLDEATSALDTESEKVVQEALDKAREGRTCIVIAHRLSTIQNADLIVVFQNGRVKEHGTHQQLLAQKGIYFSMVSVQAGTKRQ

Molecule | Activity [1] | Activity [2]
CCCCCCCC/C=C\CCCCCCCC(=O)OCCOCC(OCCO)C1OCC(OCCO)C1OCCO (configuration not stated) [TWEEN 80] | inhibitor [+] | –
CREMOPHOR EL | – | inhibitor [+]
